The results in this text go back to patent US9765092B2, “Tricyclic piperidine compounds” (ACTELION PHARMACEUTICALS LTD, priority 2013, dated 2017).

SMILES strings stand for the structures.

The target in the experiment is human TPH1 (Homo sapiens (Human), UniProt P17752). The experiment in a line: Biochemical in vitro assay using fluorescence readout (TPH1 inhibition).
Where [1] appears, read: full length human TPH1, 40 μM L-tryptophan, 15° C., 60 minutes, fluorescence at 540 nm, mean if determined several times.
Setting [2] is: human TPH1, fluorescence readout.

human TPH1, sequence (P17752 whole entry): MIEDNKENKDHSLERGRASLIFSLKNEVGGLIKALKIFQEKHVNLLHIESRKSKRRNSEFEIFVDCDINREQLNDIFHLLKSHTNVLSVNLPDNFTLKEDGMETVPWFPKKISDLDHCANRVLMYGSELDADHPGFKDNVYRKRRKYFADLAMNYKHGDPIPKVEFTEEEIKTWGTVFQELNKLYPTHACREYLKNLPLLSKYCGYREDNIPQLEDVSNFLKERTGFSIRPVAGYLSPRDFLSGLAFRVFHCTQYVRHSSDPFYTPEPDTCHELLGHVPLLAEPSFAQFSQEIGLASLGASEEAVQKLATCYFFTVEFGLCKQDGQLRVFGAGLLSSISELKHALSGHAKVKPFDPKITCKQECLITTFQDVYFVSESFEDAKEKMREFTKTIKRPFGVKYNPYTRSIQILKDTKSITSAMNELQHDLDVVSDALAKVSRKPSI

A word on the IC50: it is the concentration that inhibits the measured activity by half. A lower IC50 goes with greater potency. Under setting [1], `Cc1nn2c3c(nc2s1)CCN(C(=O)COc1ccc(N)nc1Cl)C3c1ccc(Cl)cc1F` (stereo not drawn) [Example 1.4.22, 2-((6-amino-2-chloropyridin-3-yl)oxy)-1-(5-(4-chloro-2-fluorophenyl)-2-methyl-7,8-dihydro-[1,3,4]thiadiazolo[2′,3′:2,3]imidazo[4,5-c]pyridin-6(5H)-yl)-ethanone] showed an IC50 of 10 nM. This lies in the double-digit nanomolar range.
`Cc1nn2c3c(nc2s1)CCN(C(=O)COc1ccc(C#N)cc1Cl)C3c1scnc1C` (stereo not drawn) [Example 1.32.2, 3-chloro-4-(2-(2-methyl-5-(4-methylthiazol-5-yl)-7,8-dihydro-[1,3,4]thiadiazolo[2′,3′:2,3]imidazo[4,5-c]pyridin-6(5H)-yl)-2-oxoethoxy)benzonitrile] showed an IC50 under setting [2] of 83 nM.
Take `Cc1nn2c3c(nc2s1)CCN(C(=O)COc1ccc(NS(C)(=O)=O)nc1Cl)C3c1ccc(C)c(F)c1F` (stereo not drawn) [Example 1.61.2, N-(6-chloro-5-(2-(5-(2,3-difluoro-4-methylphenyl)-2-methyl-7,8-dihydro-[1,3,4]thiadiazolo[2′,3′:2,3]imidazo-[4,5-c]pyridin-6(5H)-yl)-2-oxoethoxy)pyridin-2-yl)methanesulfonamide]: the IC50 under setting [2] was 34 nM.
In the case of `CCc1nc(N2CCCS2(=O)=O)ccc1OCC(=O)N1CCc2nc3sc(CF)nn3c2C1c1ncc(C)cc1F` (stereo not drawn) [Example 7.2.1, 2-((6-(1,1-dioxidoisothiazolidin-2-yl)-2-ethylpyridin-3-yl)oxy)-1-(5-(3-fluoro-5-methylpyridin-2-yl)-2-(fluoromethyl)-7,8-dihydro-[1,3,4]thiadiazolo[2′,3′:2,3]imidazo[4,5-c]pyridin-6(5H)-yl)ethanone], the IC50 under setting [2] worked out at 9 nM.
`Cc1nn2c3c(nc2s1)CCN(C(=O)COc1ccc(NS(=O)(=O)C2CC2)nc1Cl)C3c1ccc(Cl)cc1F` (stereo not drawn) [Example 1.4.16, N-(6-Chloro-5-(2-(5-(4-chloro-2-fluorophenyl)-2-methyl-7,8-dihydro-[1,3,4]thiadiazolo[2′,3′:2,3]imidazo[4,5-c]pyridin-6(5H)-yl)-2-oxoethoxy)pyridin-2-yl)-cyclopropanesulfonamide] had an IC50 under setting [1] of 7 nM.
For the molecule `Cc1nn2c3c(nc2s1)CCN(C(=O)COc1ccc(N2CCNCC2=O)nc1Cl)C3c1ccc(Cl)cc1F` (stereo not drawn) [Example 1.4.35, 1-(6-chloro-5-(2-(5-(4-chloro-2-fluorophenyl)-2-methyl-7,8-dihydro-[1,3,4]thiadiazolo[2′,3′:2,3]imidazo[4,5-c]pyridin-6(5H)-yl)-2-oxoethoxy)pyridin-2-yl)piperazin-2-one], the IC50 under setting [1] stood at 6 nM.
`Cc1nn2c3c(nc2s1)CCN(C(=O)COc1ccc(N(C)C)nc1C)C3c1ccc(C2CC2)cc1F` (stereo not drawn) [Example 1.6.15, 1-(5-(4-cyclopropyl-2-fluorophenyl)-2-methyl-7,8-dihydro-[1,3,4]thiadiazolo[2′,3′:2,3]imidazo[4,5-c]pyridin-6(5H)-yl)-2-((6-(dimethylamino)-2-methylpyridin-3-yl)oxy)ethanone] came in with an IC50 under setting [2] of 6 nM. This lies in the single-digit nanomolar range.
Turning to `Cc1nn2c3c(nc2s1)CCN(C(=O)COc1ccc(C2CC2)cc1Cl)C3c1ccc(Cl)cc1F` (stereo not drawn) [Example 1.4.34, 1-(5-(4-Chloro-2-fluorophenyl)-2-methyl-7,8-dihydro-[1,3,4]thiadiazolo[2′,3′:2,3]imidazo[4,5-c]pyridin-6(5H)-yl)-2-(2-chloro-4-cyclopropylphenoxy)-ethanone], under setting [1], 4 nM corresponded to half-maximal inhibition (IC50).
The molecule `Cc1nn2c3c(nc2s1)CCN(C(=O)COc1ccc(NS(C)(=O)=O)nc1Cl)C3c1ccc(C(C)(C)O)cc1F` (stereo not drawn) [Example 1.80.1, N-(6-chloro-5-(2-(5-(2-fluoro-4-(2-hydroxypropan-2-yl)phenyl)-2-methyl-7,8-dihydro-[1,3,4]thiadiazolo[2′,3′:2,3]imidazo[4,5-c]pyridin-6(5H)-yl)-2-oxoethoxy)pyridin-2-yl)methanesulfonamide] gave an IC50 under setting [2] of 98 nM. This counts as double-digit nanomolar.
The molecule `Cc1nn2c3c(nc2s1)CCN(C(=O)COc1ccc(N(C)CC(F)(F)F)nc1Cl)C3c1ccc(Cl)cc1F` (stereo not drawn) [Example 1.4.38, 1-(5-(4-chloro-2-fluorophenyl)-2-methyl-7,8-dihydro-[1,3,4]thiadiazolo[2′,3′:2,3]imidazo[4,5-c]pyridin-6(5H)-yl)-2-((2-chloro-6-(methyl(2,2,2-trifluoroethyl)amino)pyridin-3-yl)oxy)ethanone] gave an IC50 under setting [2] of 3 nM.
In the case of `Cc1nn2c3c(nc2s1)CCN(C(=O)COc1ccc(N2CCOCC2)nc1Cl)C3c1cc(CN(C)C)cs1` (stereo not drawn) [Example 1.8.1, 2-((2-chloro-6-morpholinopyridin-3-yl)oxy)-1-(5-(4-((dimethylamino)methyl)thiophen-2-yl)-2-methyl-7,8-dihydro-[1,3,4]thiadiazolo[2′,3′:2,3]imidazo[4,5-c]pyridin-6(5H)-yl)ethanone], 18 nM corresponded to half-maximal inhibition under setting [2] (IC50). This IC50 lies about 6-fold higher than the previous one.
Same read-out and setting: the same measure for `CCc1nc(NS(C)(=O)=O)ccc1OCC(=O)N1CCc2nc3sc(C(F)(F)F)nn3c2C1c1sc(C)nc1C` (stereo not drawn) [Example 5.4.2, N-(5-(2-(5-(2,4-dimethylthiazol-5-yl)-2-(trifluoromethyl)-7,8-dihydro-[1,3,4]thiadiazolo[2′,3′:2,3]imidazo[4,5-c]pyridin-6(5H)-yl)-2-oxoethoxy)-6-ethylpyridin-2-yl)methanesulfonamide]: 27 nM; for `Cc1nn2c3c(nc2s1)CCN(C(=O)COc1ccc(NS(C)(=O)=O)nc1Cl)C3c1ncc(C2CC2)cc1F` (stereo not drawn) [Example 1.14.13, N-(6-chloro-5-(2-(5-(5-cyclopropyl-3-fluoropyridin-2-yl)-2-methyl-7,8-dihydro-[1,3,4]thiadiazolo[2′,3′:2,3]imidazo[4,5-c]pyridin-6(5H)-yl)-2-oxoethoxy)pyridin-2-yl)methanesulfonamide]: 7 nM.
Molecule `COc1ccc2c(OCC(=O)N3CCc4nc5sc(C)nn5c4C3c3ccc(Cl)cc3F)cc(C)nc2c1` (stereo not drawn) [Example 1.4.63, 1-(5-(4-chloro-2-fluorophenyl)-2-methyl-7,8-dihydro-[1,3,4]thiadiazolo[2′,3′:2,3]imidazo[4,5-c]pyridin-6(5H)-yl)-2-((7-methoxy-2-methylquinolin-4-yl)oxy)ethan-1-one] displayed an IC50 under setting [2] of 65 nM.
`Cc1nn2c3c(nc2s1)CCN(C(=O)COc1ccc(N2CCOCC2)nc1Cl)C3c1sc(C(=O)N(C)C)cc1F` (stereo not drawn) [Example 1.24.1, 5-(6-(2-((2-chloro-6-morpholinopyridin-3-yl)oxy)acetyl)-2-methyl-5,6,7,8-tetrahydro-[1,3,4]thiadiazolo[2′,3′:2,3]imidazo[4,5-c]pyridin-5-yl)-4-fluoro-N,N-dimethylthiophene-2-carboxamide] had an IC50 under setting [2] of 2 nM.
Molecule `CCNC(=O)Nc1nc(C2c3c(nc4sc(C)nn34)CCN2C(=O)COc2ccc(N3CCOCC3)nc2Cl)cs1` (stereo not drawn) [Example 1.47.1, 1-(4-(6-(2-((2-chloro-6-morpholinopyridin-3-yl)oxy)acetyl)-2-methyl-5,6,7,8-tetrahydro-[1,3,4]thiadiazolo[2′,3′:2,3]imidazo[4,5-c]pyridin-5-yl)thiazol-2-yl)-3-ethylurea] had an IC50 under setting [2] of 18 nM. Compared with the last molecule, the IC50 is about 9-fold higher.
On the same count and under the same terms, to `CCOC(=O)c1csc(C2c3c(nc4sc(C)nn34)CCN2C(=O)COc2ccc(C(F)(F)F)cc2Cl)n1` (stereo not drawn) [Example 1.27.3, ethyl 2-(6-(2-(2-chloro-4-(trifluoromethyl)phenoxy)acetyl)-2-methyl-5,6,7,8-tetrahydro-[1,3,4]thiadiazolo[2′,3′:2,3]imidazo[4,5-c]pyridin-5-yl)thiazole-4-carboxylate] belongs 245 nM; to `CCc1nc(Cl)ncc1OCC(=O)N1CCc2nc3sc(C)nn3c2C1c1ccc(C)c(F)c1F` (stereo not drawn) [Example 1.61.4, 2-((2-chloro-4-ethylpyrimidin-5-yl)oxy)-1-(5-(2,3-difluoro-4-methylphenyl)-2-methyl-7,8-dihydro-[1,3,4]thiadiazolo[2′,3′:2,3]imidazo[4,5-c]pyridin-6(5H)-yl)ethanone], 49 nM; to `O=C(COc1cccnc1Cl)N1CCc2nc3sccn3c2C1c1nc2ccccc2s1` (stereo not drawn) [Example 6.12.6, 1-(5-(benzo[d]thiazol-2-yl)-7,8-dihydrothiazolo-[2′,3′:2,3]imidazo[4,5-c]pyridin-6(5H)-yl)-2-((2-chloropyridin-3-yl)oxy)ethanone], 101 nM.
Same read-out and setting: the same measure for `Cc1nn2c3c(nc2s1)CCN(C(=O)COc1ccc(N(C)C)nc1Cl)C3c1cnc(N2CCOCC2)s1` (stereo not drawn) [Example 1.7.4, 2-((2-chloro-6-(dimethylamino)pyridin-3-yl)oxy)-1-(2-methyl-5-(2-morpholinothiazol-5-yl)-7,8-dihydro-[1,3,4]thiadiazolo[2′,3′:2,3]imidazo[4,5-c]pyridin-6(5H)-yl)ethanone]: 408 nM; for `CS(=O)(=O)Nc1ccc(OCC(=O)N2CCc3nc4sc(C(F)F)nn4c3C2c2ccc(Cl)cc2F)c(Cl)n1` (stereo not drawn) [Example 8.1.1, N-(6-chloro-5-(2-(5-(4-chloro-2-fluorophenyl)-2-(difluoromethyl)-7,8-dihydro-[1,3,4]thiadiazolo-[2′,3′:2,3]imidazo[4,5-c]pyridin-6(5H)-yl)-2-oxoethoxy)pyridin-2-yl)methanesulfonamide]: 19 nM.
For the molecule `Cc1nn2c3c(nc2s1)CCN(C(=O)COc1ccc(C#N)nc1Cl)C3c1ccc(Cl)nc1F` (stereo not drawn) [Example 1.16.5, 6-chloro-5-(2-(5-(6-chloro-2-fluoropyridin-3-yl)-2-methyl-7,8-dihydro-[1,3,4]thiadiazolo[2′,3′:2,3]imidazo[4,5-c]pyridin-6(5H)-yl)-2-oxoethoxy)picolinonitrile], under setting [2], the IC50 stood at 35 nM. Against the preceding molecule, the IC50 is about 1.8-fold higher.
The molecule `CS(=O)(=O)Nc1ccc(OCC(=O)N2CCc3nc4sccn4c3C2c2ccc(Cl)cc2F)c(Cl)n1` (stereo not drawn) [Example 6.4.8, N-(6-chloro-5-(2-(5-(4-chloro-2-fluorophenyl)-7,8-dihydrothiazolo[2′,3′:2,3]imidazo[4,5-c]pyridin-6(5H)-yl)-2-oxoethoxy)pyridin-2-yl)methanesulfonamide] yielded an IC50 under setting [2] of 3 nM.
As to `CCc1nc(NS(C)(=O)=O)ccc1OCC(=O)N1CCc2nc3sc(C(F)(F)F)nn3c2C1c1ccc(C)cc1F` (stereo not drawn) [Example 5.3.1, N-(6-ethyl-5-(2-(5-(2-fluoro-4-methylphenyl)-2-(trifluoromethyl)-7,8-dihydro-[1,3,4]thiadiazolo[2′,3′:2,3]imidazo[4,5-c]pyridin-6(5H)-yl)-2-oxoethoxy)pyridin-2-yl)methanesulfonamide], the IC50 under setting [2] turned out to be 28 nM.
